Patent US9144239B2, “Macrocyclic picolinamides as fungicides” (DOW AGROSCIENCES LLC, priority 2012, dated 2015)
Read-outs that look alike come from different tables or passages of the source.

How the values were obtained:
[1] = tested on: Mycosphaerella graminicola; anamorph: Septoria tritici; experiment: Fungicidal activity: leaf blotch of wheat (SEPTTR), wheat seedlings; assay type: in vivo; settings: Zymoseptoria tritici
How it was run: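 Percent control derives from disease severity on treated versus untreated first leaves, rated 0–100% when symptoms were fully expressed on untreated plants. Yuma seedlings were inoculated with S. tritici spores either before or after spraying to run-off. The spray was acetone solution diluted 1:9 in water with 110 ppm Triton X-100. Infection took place in 100% RH dew chambers, then a 20 °C greenhouse.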

[2] = tested on: Puccinia triticina; synonym: Puccinia recondita f. sp. tritici; experiment: Fungicidal activity: wheat brown rust (PUCCRT), wheat seedlings; assay type: in vivo
How it was run: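 Wheat (Yuma) seedlings at first-leaf stage, inoculated with Puccinia triticina spores before or after treatment, held overnight in dark dew room at 22° C, 100% RH, then greenhouse at 24° C. Acetone solutions diluted with nine volumes water containing 110 ppm Triton X-100, sprayed to run-off. Percent disease control derived from severity (0–100%) relative to untreated plants.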

[3] = tested on: Puccinia triticina; synonym: Puccinia recondita f. sp. tritici; experiment: Fungicide mobility (dropline mobility test): wheat brown rust (PUCCRT); assay type: in vivo; settings: 1 ug/leaf
Experimental: Evaluation of Fungicide Mobility: Wheat Brown Rust (Puccinia triticina; Synonym: Puccinia recondita f. sp. tritici; Bayer Code PUCCRT) “Yuma” wheat seedlings were used in the test. One mg of compound was dissolved in 9 μl of EC blank (emulsifiable concentrate) and 500 μl of acetone. Acetone was then evaporated overnight by leaving the vial open in a fume hood. Two milliliters of water containing 110 ppm Triton X-100 was added to each vial to prepare application solutions. A 2 μl drop of formulated material was applied to a marked line on the adaxial surface 5 cm from the leaf tip of the primary leaves. The primary leaves were kept in a horizontal position. Each treatment had 6 replicates. Plants were inoculated with PUCCRT 1-day after (1DPM) or 3-day prior to (3DCM) compound applications. When rust was fully expressed on primary leaves on control plants, the zone of treated leaves that was disease-free in the acropetal direction was measured with a ruler and converted to percent of the distance from marked line to leaf tip.

[4] = 24 h, 100 ppm, 1 Day Protectant, wheat, read-out: Disease Control SEPTTR 1DP
[5] = 72 h, 100 ppm, 3 Day Curative, wheat, read-out: Disease Control SEPTTR 3DC
[6] = 24 h, 100 ppm, 1 Day Protectant, wheat, read-out: Disease Control PUCCRT 1DP
[7] = 72 h, 100 ppm, 3 Day Curative, wheat, read-out: Disease Control PUCCRT 3DC
[8] = 24 h, 1 Day Protectant Mobility, read-out: Dropline Mobility Test PUCCRT 1DPM
[9] = 72 h, 3 Day Curative Mobility, read-out: Dropline Mobility Test PUCCRT 3DCM
[10] = 24 h, read-out: Disease Control SEPTTR 1DP
[11] = 72 h, read-out: Disease Control SEPTTR 3DC
[12] = 24 h, read-out: Disease Control PUCCRT 1DP
[13] = 72 h, read-out: Disease Control PUCCRT 3DC

| SMILES | melting point [°C] | pest or weed control at 100 ppm [1, 4] [%] | pest or weed control at 100 ppm [1, 5] [%] | pest or weed control at 100 ppm [2, 6] [%] | pest or weed control at 100 ppm [2, 7] [%] | pest or weed control at 1 µg/leaf [3, 8] [%] | pest or weed control at 1 µg/leaf [3, 9] [%] | pest or weed control at 100 ppm [1, 10] [%] | pest or weed control at 100 ppm [1, 11] [%] | pest or weed control at 100 ppm [2, 12] [%] | pest or weed control at 100 ppm [2, 13] [%] |
| --- | --- | --- | --- | --- | --- | --- | --- | --- | --- | --- | --- |
| COc1ccnc(C(=O)N[C@H]2COC[C@H](OCc3ccccc3)[C@@H](OCc3ccccc3)[C@H](C)OC2=O)c1O [Compound 11, N-((3S,7S,8S,9S)-7,8-bis(benzyloxy)-9-methyl-2-oxo-1,5-dioxonan-3-yl)-3-hydroxy-4-methoxypicolinamide] | 144 to 146 | 80 to 100 | 0 to 80 | 80 to 100 | 80 to 100 | 0 to 80 | 0 to 80 |  |  |  |  |
| COc1ccnc(C(=O)N[C@H]2COC[C@H](OCC(C)C)[C@@H](OCC(C)C)[C@H](C)OC2=O)c1O [Compound 1, N-((3S,7S,8S,9S)-7,8-diisobutoxy-9-methyl-2-oxo-1,5-dioxonan-3-yl)-3-hydroxy-4-methoxypicolinamide] | 111 to 113 | 80 to 100 | 80 to 100 | 80 to 100 | 80 to 100 | 80 to 100 | 80 to 100 |  |  |  |  |
| COc1ccnc(C(=O)N[C@H]2COC[C@H](Oc3ccccc3)[C@@H](OCC(C)C)[C@H](C)OC2=O)c1O [Compound 83] | 112 to 113 | 80 to 100 | 80 to 100 | 80 to 100 | 80 to 100 | 80 to 100 | 0 to 80 |  |  |  |  |
| COc1ccnc(C(=O)N[C@H]2COC[C@H](O)[C@@H](OCC(C)C)[C@H](C)OC2=O)c1O [Compound 72, 3-hydroxy-N-((3S,7S,8R,9S)-7-hydroxy-8-isobutoxy-9-methyl-2-oxo-1,5-dioxonan-3-yl)-4-methoxypicolinamide] | 121 to 124 | 0 to 80 | 0 to 80 | 0 to 80 | 0 to 80 | 0 to 80 | 0 to 80 |  |  |  |  |
| CCCCO[C@H]1COC[C@H](NC(=O)c2nccc(OC)c2O)C(=O)O[C@@H](C)[C@@H]1OCC(F)F [Compound 53, N-((3S,7S,8S,9S)-7-butoxy-8-(2,2-difluoroethoxy)-9-methyl-2-oxo-1,5-dioxonan-3-yl)-3-hydroxy-4-methoxypicolinamide] | 127 to 129 |  |  |  |  |  |  | 0 to 80 | 0 to 80 | 80 to 100 | 80 to 100 |
| COc1ccnc(C(=O)N[C@H]2COC[C@H](OCC3CC3)[C@@H](OCC3CC3)[C@H](C)OC2=O)c1O [Compound 209] | 114 to 117 |  | 0 to 80 | 0 to 80 | 0 to 80 |  |  |  |  |  |  |
| CCCCO[C@H]1COC[C@H](NC(=O)c2nccc(OC)c2O)C(=O)O[C@@H](C)[C@@H]1OCCC [Compound 44, N-((3S,7S,8S,9S)-7-butoxy-9-methyl-2-oxo-8-propoxy-1,5-dioxonan-3-yl)-3-hydroxy-4-methoxypicolinamide] | 110 to 112 | 80 to 100 | 80 to 100 | 80 to 100 | 80 to 100 |  |  |  |  |  |  |
| COc1ccnc(C(=O)N[C@H]2COC[C@H](OCC(C)C)[C@@H](OCC(C)C)COC2=O)c1OCOC(C)=O [Compound 13] | 58 to 64 | 80 to 100 |  | 80 to 100 | 80 to 100 |  |  |  |  |  |  |
| COc1ccnc(C(=O)N[C@H]2COC[C@H](OCC(C)C)[C@@H](Oc3ccccc3)[C@H](C)OC2=O)c1O [Compound 82, 3-hydroxy-N-((3S,7S,8S,9S)-7-isobutoxy-9-methyl-2-oxo-8-phenoxy-1,5-dioxonan-3-yl)-4-methoxypicolinamide] | 117 to 119 |  |  |  |  | 80 to 100 | 0 to 80 | 80 to 100 | 0 to 80 | 80 to 100 | 80 to 100 |
| COc1ccnc(C(=O)N[C@H]2COC[C@H](OC)[C@@H](OC)[C@H](C)OC2=O)c1O [Compound 63, N-((3S,7S,8S,9S)-7,8-dimethoxy-9-methyl-2-oxo-1,5-dioxonan-3-yl)-3-hydroxy-4-methoxypicolinamide] | 165 to 167 |  | 0 to 80 |  |  | 0 to 80 |  |  |  |  |  |
| CC[C@@H]1OC(=O)[C@@H](NC(=O)c2nccc(OC)c2O)COC[C@H](OCC(C)C)[C@H]1OCC(C)C [Compound 21, N-((3S,7S,8S,9S)-9-ethyl-7,8-diisobutoxy-2-oxo-1,5-dioxonan-3-yl)-3-hydroxy-4-methoxypicolinamide] | 119 to 121 | 80 to 100 | 0 to 80 | 80 to 100 | 80 to 100 |  |  |  |  |  |  |
| COc1ccnc(C(=O)N[C@H]2COC[C@H](OC3CCCCC3)[C@@H](OCC(C)C)[C@H](C)OC2=O)c1O [Compound 73] | 122 to 125 | 80 to 100 | 80 to 100 | 80 to 100 | 80 to 100 | 0 to 80 | 0 to 80 |  |  |  |  |
| CCCCO[C@H]1COC[C@H](NC(=O)c2nccc(OC)c2O)C(=O)O[C@@H](C)[C@@H]1OCC(C)C [Compound 48, N-((3S,7S,8S,9S)-7-butoxy-8-isobutoxy-9-methyl-2-oxo-1,5-dioxonan-3-yl)-3-hydroxy-4-methoxypicolinamide] | 104 to 106 | 80 to 100 | 80 to 100 | 80 to 100 | 80 to 100 |  |  |  |  |  |  |
| CCCCO[C@H]1COC[C@H](NC(=O)c2nccc(OC)c2O)C(=O)O[C@@H](C)[C@@H]1OCC(C)(C)Cl [Compound 87, N-((3S,7S,8S,9S)-7-butoxy-8-(2-chloro-2-methylpropoxy)-9-methyl-2-oxo-1,5-dioxonan-3-yl)-3-hydroxy-4-methoxypicolinamide] | 115 to 117 |  |  |  |  | 0 to 80 | 80 to 100 |  |  |  |  |
